From PMC10442743 (Dalton Transactions (Cambridge, England : 2003), 2023) come the findings set out here.

The subject of one data set is pBR322 DNA. The procedure:
The interaction of 11Cl with plasmid DNA was also assessed by visualizing the relaxation of the plasmid using agarose gel electrophoresis (Fig. 4). Different concentrations of the 11Cl were incubated with pBR322 DNA at 37 °C for 24 h and then analyzed by gel electrophoresis (Fig. 4).
Assays were performed using 1.2% (w/v) agarose gels. A plasmid pBR322 DNA was purchased from Thermofisher Scientific® at 0.5 μg μL^−1 concentration in phosphate buffer 50 mM (pH 7.4). A 20 μL portion containing 0.125 μg μL^−1 of DNA in 10 mM Tris-HCl (pH 7.6) and 1 mM EDTA was incubated with increasing volumes of the stock solution of 11Cl (1 mM in DMSO) at ri values ranging from 0.05 to 0.5 (ri = [complex]/[no. nucleotide]). […] 20 μL of the sample was loaded in the agarose gel (1.2% w/v), and electrophoresis was carried out for a period of 100 min at 40 V in TAE 1× (Tris-acetate/EDTA) buffer. After electrophoresis, the gel was immersed in 200 mL of TAE 1× buffer containing 20 μL of a stock solution of SYBR safe for 30 min to stain the DNA. Then, the gel was washed with Mili Q water for 10 min and the stained gel was analyzed with a blue light in a Safe Imager™ 2.0 (Invitrogen).

The nature of data set [1]: n-octanol/water partition coefficient (shake-flask, ICP-MS). The method, then: The saturated solutions were filtered
(DigiPREP Jr. 15ml, 40 Pos, SCP Science). The digestion program was the following: 15
After the digestion, the sample
Samples were further diluted
range. All measurements were performed in triplicates.
lipophilicity of a compound. This assay was performed following the Shake-flask method
organic and aqueous phase. Aliquots of each phase were taken and analyzed separately
range. The partition coefficient was calculated as P!"=
respectively. All measurements were performed in triplicates.

For the molecule `Cc1ccccc1.[Cl-].[Cl][Ru+]([PH](c1ccccc1)(c1ccccc1)c1ccccc1)[PH](c1ccccc1)(c1ccccc1)c1ccccc1` [Compound 11Cl, [Ru(η^6-toluene)(PPh3)2Cl]Cl], in the data set with pBR322 DNA (37 °C, 24 h, ri 0.01–0.5), the “stabilization of the linear form of plasmid DNA” value is listed as “did not induce the stabilization of the linear form”. Moreover, the “precipitation of DNA” value in the data set with pBR322 DNA (all studied concentrations) is “no precipitation was observed”. In addition, the “ri ratio from which alterations in the supercoiled structure (tailing, slight retardation) appear” value with pBR322 DNA (ri = [11Cl]/[DNA bp], 37 °C, 24 h) is not below 0.2. The molecule further returned a LogPow in data set [1] of 1.48 ± 0.29.
